Laboratory results from PubChem BioAssay AID1996.
Converted amounts (≈) assume the structure as drawn.

Conditions: buffer; pH 7.4; 200.0 µM

Structure (SMILES)	solubility kinetic
CC(C)(C)c1ccc(C(=O)NC2CCN(Cc3ccccc3)CC2)cc1	36.5 µg/mL (≈ 104 µM)
Cc1ccc(N2C(=O)CC(NCC3CCCO3)C2=O)cc1 (stereo not drawn)	> 43.3 µg/mL
CSc1nsc(NC(=O)Nc2ccccc2)n1	21.2 µg/mL (≈ 79.6 µM)
Cc1ccc(NC(=O)CCCNC(=O)c2ccc(Cl)cc2)nc1	4.1 µg/mL (≈ 12.4 µM)
CC(C)C(=O)NCc1cc(-c2ccc(Cl)cc2)no1	3 µg/mL (≈ 10.8 µM)
Cc1nc(-c2ccc(C(=O)N3CCCC3)cc2)cs1	> 40.9 µg/mL
O=C(COC(=O)c1ccco1)NCc1ccc2c(c1)OCO2	> 45.5 µg/mL
N#C/C(=C\c1ccc(O)cc1)C(=O)NCc1ccccc1	2.4 µg/mL (≈ 8.62 µM)
O=c1nc(Nc2ccc([N+](=O)[O-])cc2)[nH]c(=O)[nH]1	26.2 µg/mL (≈ 105 µM)
CC1(C)CC(=O)C2=C(C1)Nc1ccccc1NC2c1ccccc1F (stereo not drawn)	10.5 µg/mL (≈ 31.2 µM)
COc1ccccc1C1CCN(c2ccc([N+](=O)[O-])c(OC)c2)CC1	< 0.4 µg/mL
S=c1nc(C2CCCCC2)[nH]c2ccccc12	0.5 µg/mL (≈ 2.05 µM)
CC(=O)NC1(NC(C)=O)CCN(C)CC1	> 32 µg/mL
Cc1nc([N+](=O)[O-])c(C(=O)OCc2ccccc2)n1C	37.6 µg/mL (≈ 137 µM)
O=C(COC(=O)c1ccc2ccccc2n1)Nc1ccccc1Br	12.4 µg/mL (≈ 32.2 µM)
CN(CCc1ccccc1)Cc1nc(-c2cnccn2)no1	44 µg/mL (≈ 149 µM)
CC1(C(=O)O)CCC(C(=O)Nc2cccc(F)c2)C1(C)C (stereo not drawn)	> 44 µg/mL
N#C/C(=C\c1ccc(F)cc1)C(=O)Nc1ccccn1	19 µg/mL (≈ 71.1 µM)
Cc1ccc(S(=O)(=O)Nc2cccc(Cl)c2)cc1NC(=O)C1CC1	> 54.7 µg/mL
Cc1ccc(NC(=O)C2CCCN2C(=O)NC2CCCCC2)cc1 (stereo not drawn)	1.9 µg/mL (≈ 5.77 µM)
Cc1nn(CC(=O)NC2CCCC2)c(C)c1[N+](=O)[O-]	> 39.9 µg/mL
C=CCN(Cc1nc(-c2ccccc2)no1)C(=O)c1ccco1	38.4 µg/mL (≈ 124 µM)

Structure (SMILES)	solubility kinetic
Cc1ccc(NC(=O)CN2C(=O)S/C(=C\c3ccccn3)C2=O)cc1C	< 0.3 µg/mL
Cc1ccccc1C(=O)OC1CCCN(C)C1.Cl (stereo not drawn)	39.9 µg/mL
COc1ccccc1N1CCN(C(=O)c2cc(C(C)(C)C)oc2C)CC1	41.8 µg/mL (≈ 117 µM)
CCn1cc(C(=S)N2CCC(C(N)=O)CC2)c2ccccc21	38.7 µg/mL (≈ 123 µM)
COc1cc(C(C)=O)ccc1OC(=O)N(C)c1ccccc1	44.2 µg/mL (≈ 148 µM)
CCc1c(-c2ccccc2)nc2sc3c(c2c1N)CCCC3	< 0.3 µg/mL
C#CCn1c(-c2cccs2)nc2ccccc21	> 35.7 µg/mL
CCN(CC)C(=O)c1ccc(O)c(OC)c1	> 33.5 µg/mL
CC(=O)N(CCCN(C)C)Cc1ccccn1	30 µg/mL (≈ 127 µM)
N#Cc1ccc(OCC(=O)NCCN2CCOCC2)cc1	> 43.4 µg/mL
O=C(Nc1sc2c(c1C(=O)O)CCCC2)c1ccc(F)cc1	41.2 µg/mL (≈ 129 µM)
Cc1onc(NC(=O)NC(=O)c2ccccc2F)c1Br	6.8 µg/mL (≈ 19.9 µM)
CCOC(=O)C(=O)N1CCC(C(=O)OCC)CC1	> 38.6 µg/mL
Cc1cc(C)n2cc(CSc3ccc(Cl)cc3)nc2n1	> 45.6 µg/mL
O=C(NCCN1CCOCC1)c1cc(-c2ccc(F)cc2)nc2ccccc12	23.8 µg/mL (≈ 62.7 µM)
O=C(COC(=O)c1cc2ccccc2o1)NCc1ccco1	17 µg/mL (≈ 56.8 µM)
CCOC(=O)C(=O)Nc1cc(C)on1	> 29.7 µg/mL
Cc1nc2ccccc2n1CCOc1ccc(F)cc1	40.1 µg/mL (≈ 148 µM)
Cc1[nH]c2nc3ccccc3n2c(=O)c1CCC(C)C	< 0.2 µg/mL
OC(CNCc1ccccc1Cl)COc1ccc(F)cc1 (stereo not drawn)	> 46.5 µg/mL
COC(=O)c1cc(NC(=O)c2cccs2)ccc1N1CCOCC1	43.5 µg/mL (≈ 126 µM)
Cc1cccc(OCC(=O)NC2CC(C)(C)NC(C)(C)C2)c1	> 45.7 µg/mL

Structure (SMILES)	solubility kinetic
CCC(C)c1ccc(NC(=S)N2CCN(S(C)(=O)=O)CC2)cc1 (stereo not drawn)	8.8 µg/mL (≈ 24.8 µM)
COc1ccc2ccccc2c1-c1csc(N)n1	> 38.4 µg/mL
NC(=O)C1CCN(CC(=O)Nc2cccnc2Cl)CC1	44.1 µg/mL (≈ 149 µM)
c1ccc(-c2noc(C3CCC3)n2)nc1	20.6 µg/mL (≈ 102 µM)
O=[N+]([O-])c1cc(CSC2=NCCN2)ccc1O	37.1 µg/mL (≈ 146 µM)
NC(=O)c1ccc(NC(=O)CCNC(=O)c2ccco2)cc1	41.2 µg/mL (≈ 137 µM)
CSc1cccc(NS(=O)(=O)c2cn(C)cn2)c1	14.2 µg/mL (≈ 50.1 µM)
Cc1ccccc1Nc1c(C)c(C)nc2ncnn12	> 38 µg/mL
O=C(NCC(=O)N1CCCC1)c1ccccc1F	> 37.5 µg/mL
COc1ccc(OCCN(C)CC(=O)Nc2ccccc2SC)cc1	21.2 µg/mL (≈ 58.8 µM)
Cc1ccc(-c2nc3ccccn3c2C=O)cc1	8.5 µg/mL (≈ 36 µM)
O=C1c2ccccc2C2(c3cc(C(F)(F)F)cc(C(F)(F)F)c3)NCCN12 (stereo not drawn)	55.9 µg/mL (≈ 145 µM)
O=C(Oc1ccc(C(=S)N2CCOCC2)cc1)c1cccc([N+](=O)[O-])c1	< 0.4 µg/mL
Cc1nc(SCC(=O)NCCN2C(=O)CSC2=O)nc(C)c1C	> 53.2 µg/mL
C=CCn1c(SC(F)F)nc2scc(-c3ccco3)c2c1=O	< 0.4 µg/mL
Cc1cccc(NS(=O)(=O)c2csc(C(N)=O)c2)c1	> 44.5 µg/mL
Cc1cc2c(sc3ccccc32)c(C)n1.Cl	3.7 µg/mL
O=C1CN(C(=O)COc2c(F)c(F)cc(F)c2F)c2ccccc2N1	44.4 µg/mL (≈ 125 µM)
O=C(Cc1cccs1)NCCc1csc(-c2ccccc2)n1	> 49.3 µg/mL
COc1cc(/C=C/C(=O)OCC(=O)Nc2ccc3c(c2)OCO3)ccc1O	15.5 µg/mL (≈ 41.7 µM)
COc1ccc(OC)c(/C=N/NC(=O)C(O)c2ccccc2)c1 (stereo not drawn)	> 47.2 µg/mL
OCCC1CN(C2CCSCC2)CCN1C1CCCC1 (stereo not drawn)	34.5 µg/mL (≈ 116 µM)

Structure (SMILES)	solubility kinetic
COC(=O)c1cn(CC(=O)Nc2ccc(OC)cc2)c2ccccc12	< 0.4 µg/mL
CCOC(=O)C1CCN(S(=O)(=O)c2cn(C)c(C)n2)CC1	> 47.3 µg/mL
Cc1ccnc(NC(=O)C(C)N2C(=O)c3ccccc3C2=O)c1 (stereo not drawn)	39.4 µg/mL (≈ 127 µM)
CNC(=O)c1cccc2cccc(Sc3ccccc3C(=O)O)c12	44.2 µg/mL (≈ 131 µM)
O=C(CC(=O)Nc1ccccc1F)Nc1ccccc1F	> 43.5 µg/mL
Cc1ccc(-n2c(=O)[nH]c3c(oc4ccccc43)c2=O)cc1	38.8 µg/mL (≈ 133 µM)
Br.COc1ccc(C2=CSC3=NCCN23)cc1OC	> 51.5 µg/mL
COC(=O)c1ccccc1NC(=O)CSc1ncccn1	> 45.5 µg/mL
COc1ccc(C(=O)/C=C/Nc2cc(C)ccn2)cc1	5.8 µg/mL (≈ 21.6 µM)
S=C1Nc2ccccc2Sc2ccccc21	1 µg/mL (≈ 4.11 µM)
CCOc1ccccc1C(=O)NCC(=O)N(C)Cc1cccnc1	44.8 µg/mL (≈ 137 µM)
CC(=O)N1CCN(C2=NC(=O)/C(=C\c3cccs3)S2)CC1	38.7 µg/mL (≈ 120 µM)
C[C@H](NS(=O)(=O)c1ccc(F)cc1)C(=O)OCC(=O)c1c(N)n(C)c(=O)n(C)c1=O	> 66.4 µg/mL
COc1ccccc1CC(=O)N1CCN(C(=O)c2ccco2)CC1	48.3 µg/mL (≈ 147 µM)
Cc1ccc(OCC(=O)O/N=C(\N)c2ccncc2)c(C)c1	30.9 µg/mL (≈ 103 µM)
O=S(=O)(c1ccc2[nH]ccc2c1)N1CCCCCC1	> 41.8 µg/mL
O=[N+]([O-])C(=C1NCCN1)C(Cl)=C(Cl)Cl	> 38.8 µg/mL
CN1CCCN(C(=O)CSc2ccccc2)CC1	39.3 µg/mL (≈ 149 µM)
CC1Cc2ccccc2N1CC(=O)NC(=O)NC1CCCC1 (stereo not drawn)	6.9 µg/mL (≈ 22.9 µM)
Cc1ccc(C)c(OCCNc2ccc([N+](=O)[O-])cn2)c1	0.4 µg/mL (≈ 1.39 µM)
O=c1[nH]c2c(oc3ccccc32)c(=O)n1Cc1ccccc1	3 µg/mL (≈ 10.3 µM)
O=C(/C=C/c1ccco1)NCCc1ccccc1	33.1 µg/mL (≈ 137 µM)
